Data as given in EP4635500A1, “THERAPEUTIC AGENT FOR BACTERIAL INFECTION” (Sumitomo Pharma Co., Ltd., priority 2022, dated 2024).
Where two headings read alike, the source gives them in different places.

Assays:
[1] = test system: Enterobacterales; assay: MIC, broth microdilution, CDC/FDA Antibiotic Resistance Isolate Bank (Example 7, Tables 8, 11, 12); assay type: cell-based; details: for MIC: read-out: MIC; for MIC50 / MIC90: carbapenemase-producing Enterobacterales; for MIC50: read-out: MIC50; for MIC90: read-out: MIC90
[2] = test system: 53 CRE and CPE strains; assay: MICrange, MIC50, MIC80, MIC90 for 53 bacterial isolates (Example 5, Table 5); assay type: cell-based; details: 53 bacterial isolates
[3] = test system: A. baumannii; assay: MIC, broth microdilution, CDC/FDA Antibiotic Resistance Isolate Bank (Example 7, Tables 9, 13, 14); assay type: cell-based, Acinetobacter baumannii; details: for MIC: read-out: MIC
[4] = MIC distribution, metallo-β-lactamase-producing A. baumannii, inhibitor µg/mL in parentheses

NCC[C@H](O)C(=O)N[C@@H]1C[C@H](N)[C@@H](O[C@H]2O[C@H](CN)[C@@H](O)[C@H](O)[C@H]2O)[C@H](O)[C@H]1O[C@H]1O[C@H](CO)[C@@H](O)[C@H](N)[C@H]1O [Amikacin, amikacin]
2: Number of isolates at MIC 2 µg/mL [3, 4]
> 64 µg/mL: MIC ([1]; Klebsiella pneumoniae, KUB No. 5639, AR Bank # 142) | MIC ([1]; Klebsiella pneumoniae, KUB No. 5640, AR Bank # 143) | MIC ([1]; Klebsiella pneumoniae, KUB No. 5645, AR Bank # 148) | MIC ([1]; Klebsiella pneumoniae, KUB No. 5650, AR Bank # 153) | MIC ([1]; Klebsiella pneumoniae, Klebsiella pneumoniae KUB No. 5812, AR Bank #507) | MIC ([1]; Proteus mirabilis, KUB No. 5656, AR Bank # 159) | MIC ([1]; Salmonella enterica, Salmonella Senftenberg, KUB No. 5624, AR Bank # 127) | MIC90 ([1]; Metallo-β-lactamase (N = 47)) | MIC90 ([2]; read-out: MIC90) | MIC ([3]; Acinetobacter baumannii, A. baumannii KUB No. 5580, AR Bank #83, OXA-23, OXA-69, NDM-1) | MIC ([3]; Acinetobacter baumannii, A. baumannii KUB No. 5599, AR Bank #102, OXA-66) | MIC ([3]; Acinetobacter baumannii, A. baumannii KUB No. 5706, AR Bank #273, OXA-23, OXA-66) | MIC ([3]; Acinetobacter baumannii, A. baumannii KUB No. 5708, AR Bank #275, OXA-23, OXA-66) | MIC ([3]; Acinetobacter baumannii, A. baumannii KUB No. 5711, AR Bank #278, OXA-23, OXA-66) | MIC ([3]; Acinetobacter baumannii, A. baumannii KUB No. 5712, AR Bank #279, OXA-23, OXA-66) | MIC ([3]; Acinetobacter baumannii, A. baumannii KUB No. 5715, AR Bank #282, OXA-23, OXA-66) | MIC ([3]; Acinetobacter baumannii, A. baumannii KUB No. 5716, AR Bank #283, OXA-23, OXA-66) | MIC ([3]; Acinetobacter baumannii, KUB No. 5719, AR Bank #286) | MIC ([3]; Acinetobacter baumannii, KUB No. 5721, AR Bank #288) | MIC ([3]; Acinetobacter baumannii, KUB No. 5723, AR Bank #290) | MIC ([3]; Acinetobacter baumannii, KUB No. 5724, AR Bank #291) | MIC ([3]; Acinetobacter baumannii, KUB No. 5729, AR Bank #296) | MIC ([3]; Acinetobacter baumannii, KUB No. 5731, AR Bank #298) | MIC ([3]; Acinetobacter baumannii, KUB No. 5732, AR Bank #299) | MIC ([3]; Acinetobacter baumannii, KUB No. 5733, AR Bank #300) | MIC ([3]; Acinetobacter baumannii, KUB No. 5735, AR Bank #302) | MIC ([3]; Acinetobacter baumannii, KUB No. 5736, AR Bank #303) | MIC ([3]; Acinetobacter baumannii, KUB No. 5740, AR Bank #307) | MIC ([3]; Acinetobacter baumannii, KUB No. 5741, AR Bank #308) | MIC ([3]; Acinetobacter baumannii, KUB No. 5742, AR Bank #309) | MIC ([3]; Acinetobacter baumannii, KUB No. 5743, AR Bank #310) | MIC ([3]; Acinetobacter baumannii, KUB No. 5744, AR Bank #311) | MIC80 ([3]; Acinetobacter baumannii, 55 isolates of A. baumannii, read-out: MIC80) | MIC90 ([3]; Acinetobacter baumannii, 55 isolates of A. baumannii, read-out: MIC90)
2 µg/mL: MIC ([1]; Klebsiella pneumoniae, KUB No. 5655, AR Bank # 158) | MIC ([1]; Klebsiella pneumoniae, KUB No. 5772, AR Bank # 376) | MIC ([1]; Klebsiella pneumoniae, Klebsiella pneumoniae KUB No. 5809, AR Bank #504) | MIC ([1]; Proteus mirabilis, KUB No. 5773, AR Bank # 377) | MIC ([1]; Serratia marcescens, KUB No. 5618, AR Bank # 121) | MIC ([1]; Serratia marcescens, KUB No. 5621, AR Bank # 124) | MIC ([1]; Serratia marcescens, KUB No. 5627, AR Bank # 130) | MIC ([1]; Serratia marcescens, Serratia marcescens KUB No. 5826, AR Bank #521) | MIC50 ([2]; read-out: MIC50) | MIC ([3]; Acinetobacter baumannii, A. baumannii KUB No. 5714, AR Bank #281, OXA-82) | MIC ([3]; Acinetobacter baumannii, KUB No. 5728, AR Bank #295) | MIC ([3]; Acinetobacter baumannii, KUB No. 5746, AR Bank #313)
32 µg/mL: MIC ([1]; Klebsiella pneumoniae, KUB No. 5649, AR Bank # 152) | MIC ([1]; Klebsiella pneumoniae, KUB No. 5757, AR Bank # 361) | MIC ([1]; Klebsiella pneumoniae, Klebsiella pneumoniae KUB No. 5784, AR Bank #438) | MIC ([1]; Klebsiella pneumoniae, Klebsiella pneumoniae KUB No. 5797, AR Bank #453) | MIC ([1]; Klebsiella pneumoniae, Klebsiella pneumoniae KUB No. 5811, AR Bank #506) | MIC ([1]; Klebsiella pneumoniae, Klebsiella pneumoniae KUB No. 5830, AR Bank #525) | MIC80 ([2]; read-out: MIC80) | MIC ([3]; Acinetobacter baumannii, A. baumannii KUB No. 5575, AR Bank #78, OXA-71) | MIC ([3]; Acinetobacter baumannii, A. baumannii KUB No. 5585, AR Bank #88, OXA-64, NDM-1) | MIC ([3]; Acinetobacter baumannii, A. baumannii KUB No. 5717, AR Bank #284, OXA-24, OXA-65) | MIC ([3]; Acinetobacter baumannii, KUB No. 5722, AR Bank #259) | MIC ([3]; Acinetobacter baumannii, KUB No. 5725, AR Bank #292) | MIC ([3]; Acinetobacter baumannii, KUB No. 5730, AR Bank #297) | MIC ([3]; Acinetobacter baumannii, KUB No. 5737, AR Bank #304) | MIC ([3]; Acinetobacter baumannii, KUB No. 5738, AR Bank #305)
8 µg/mL: MIC ([1]; Klebsiella pneumoniae, Klebsiella pneumoniae KUB No. 5810, AR Bank #505) | MIC ([1]; Klebsiella pneumoniae, Klebsiella pneumoniae KUB No. 5828, AR Bank #523) | MIC ([1]; Proteus mirabilis, KUB No. 5775, AR Bank # 379) | MIC ([1]; Serratia marcescens, Serratia marcescens KUB No. 5822, AR Bank #517)
64 µg/mL: MIC ([1]; Serratia marcescens, Serratia marcescens KUB No. 5825, AR Bank #520) | MIC90 ([1]; Serine carbapenemase (N=61)) | MIC ([3]; Acinetobacter baumannii, A. baumannii KUB No. 5598, AR Bank #101, OXA-24, OXA-65) | MIC ([3]; Acinetobacter baumannii, A. baumannii KUB No. 5709, AR Bank #276, no carbapenemase genes (-)) | MIC ([3]; Acinetobacter baumannii, A. baumannii KUB No. 5718, AR Bank #285, OXA-24, OXA-65) | MIC ([3]; Acinetobacter baumannii, KUB No. 5720, AR Bank #287) | MIC ([3]; Acinetobacter baumannii, KUB No. 5727, AR Bank #294) | MIC ([3]; Acinetobacter baumannii, KUB No. 5734, AR Bank #301) | MIC ([3]; Acinetobacter baumannii, KUB No. 5739, AR Bank #306) | MIC50 ([3]; Acinetobacter baumannii, 55 isolates of A. baumannii, read-out: MIC50)
1 µg/mL: MIC ([1]; Morganella morganii, KUB No. 5630, AR Bank # 133) | MIC ([1]; Proteus mirabilis, KUB No. 5652, AR Bank # 155) | MIC ([1]; Providencia rettgeri, KUB No. 5579, AR Bank # 82) | MIC ([1]; Serratia marcescens, KUB No. 5588, AR Bank # 91) | MIC ([1]; Serratia marcescens, KUB No. 5596, AR Bank # 99) | MIC ([1]; Serratia marcescens, KUB No. 5619, AR Bank # 122) | MIC ([1]; Serratia marcescens, KUB No. 5620, AR Bank # 123) | MIC ([1]; Serratia marcescens, KUB No. 5628, AR Bank # 131) | MIC ([3]; Acinetobacter baumannii, A. baumannii KUB No. 5567, AR Bank #70, OXA-58, OXA-100) | MIC ([3]; Acinetobacter baumannii, KUB No. 5745, AR Bank #312)
16 µg/mL: MIC ([1]; Klebsiella pneumoniae, KUB No. 5642, AR Bank # 145) | MIC ([1]; Klebsiella pneumoniae, KUB No. 5643, AR Bank # 146) | MIC ([1]; Klebsiella pneumoniae, KUB No. 5759, AR Bank # 363) | MIC ([1]; Klebsiella pneumoniae, KUB No. 5760, AR Bank # 364) | MIC ([1]; Klebsiella pneumoniae, Klebsiella pneumoniae KUB No. 5829, AR Bank #524) | MIC50 ([1]; Metallo-β-lactamase (N = 47)) | MIC ([3]; Acinetobacter baumannii, A. baumannii KUB No. 5707, AR Bank #274, OXA-66, OXA-72) | MIC ([3]; Acinetobacter baumannii, A. baumannii KUB No. 5710, AR Bank #277, OXA-24, OXA-65) | MIC ([3]; Acinetobacter baumannii, KUB No. 5726, AR Bank #293)
4 µg/mL: MIC ([1]; Klebsiella pneumoniae, Klebsiella pneumoniae KUB No. 5827, AR Bank #522) | MIC ([1]; Kluyvera ascorbata, KUB No. 5641, AR Bank # 144) | MIC ([1]; Morganella morganii, KUB No. 5554, AR Bank# 57) | MIC ([1]; Proteus mirabilis, KUB No. 5556, AR Bank# 59) | MIC ([1]; Proteus mirabilis, KUB No. 5653, AR Bank # 156) | MIC50 ([1]; Serine carbapenemase (N=61)) | MIC ([3]; Acinetobacter baumannii, A. baumannii KUB No. 5713, AR Bank #280, OXA-66)
0.5 µg/mL: MIC ([1]; Klebsiella pneumoniae, KUB No. 5657, AR Bank # 160)
1: Number of isolates at MIC 32 µg/mL [3, 4] | Number of isolates at MIC >64 µg/mL [3, 4]
